Laboratory results published in ChEMBL document CHEMBL2074240, “VX-710 (biricodar) increases drug retention and enhances chemosensitivity in resistant cells overexpressing P-glycoprotein, multidrug resistance protein, and breast cancer resistance protein” (Clin Cancer Res, 2004).

Target: ATP-dependent translocase ABCB1 (Homo sapiens, UniProt P08183)
Assay: TP_TRANSPORTER: increase in mitoxantrone intracellular accumulation (Mitoxantrone: 3 uM, VX-710: 2.5 uM) in A2780/Dx5b cells
Assay type: functional, cell-based

Sequence of ATP-dependent translocase ABCB1 (P08183 whole entry): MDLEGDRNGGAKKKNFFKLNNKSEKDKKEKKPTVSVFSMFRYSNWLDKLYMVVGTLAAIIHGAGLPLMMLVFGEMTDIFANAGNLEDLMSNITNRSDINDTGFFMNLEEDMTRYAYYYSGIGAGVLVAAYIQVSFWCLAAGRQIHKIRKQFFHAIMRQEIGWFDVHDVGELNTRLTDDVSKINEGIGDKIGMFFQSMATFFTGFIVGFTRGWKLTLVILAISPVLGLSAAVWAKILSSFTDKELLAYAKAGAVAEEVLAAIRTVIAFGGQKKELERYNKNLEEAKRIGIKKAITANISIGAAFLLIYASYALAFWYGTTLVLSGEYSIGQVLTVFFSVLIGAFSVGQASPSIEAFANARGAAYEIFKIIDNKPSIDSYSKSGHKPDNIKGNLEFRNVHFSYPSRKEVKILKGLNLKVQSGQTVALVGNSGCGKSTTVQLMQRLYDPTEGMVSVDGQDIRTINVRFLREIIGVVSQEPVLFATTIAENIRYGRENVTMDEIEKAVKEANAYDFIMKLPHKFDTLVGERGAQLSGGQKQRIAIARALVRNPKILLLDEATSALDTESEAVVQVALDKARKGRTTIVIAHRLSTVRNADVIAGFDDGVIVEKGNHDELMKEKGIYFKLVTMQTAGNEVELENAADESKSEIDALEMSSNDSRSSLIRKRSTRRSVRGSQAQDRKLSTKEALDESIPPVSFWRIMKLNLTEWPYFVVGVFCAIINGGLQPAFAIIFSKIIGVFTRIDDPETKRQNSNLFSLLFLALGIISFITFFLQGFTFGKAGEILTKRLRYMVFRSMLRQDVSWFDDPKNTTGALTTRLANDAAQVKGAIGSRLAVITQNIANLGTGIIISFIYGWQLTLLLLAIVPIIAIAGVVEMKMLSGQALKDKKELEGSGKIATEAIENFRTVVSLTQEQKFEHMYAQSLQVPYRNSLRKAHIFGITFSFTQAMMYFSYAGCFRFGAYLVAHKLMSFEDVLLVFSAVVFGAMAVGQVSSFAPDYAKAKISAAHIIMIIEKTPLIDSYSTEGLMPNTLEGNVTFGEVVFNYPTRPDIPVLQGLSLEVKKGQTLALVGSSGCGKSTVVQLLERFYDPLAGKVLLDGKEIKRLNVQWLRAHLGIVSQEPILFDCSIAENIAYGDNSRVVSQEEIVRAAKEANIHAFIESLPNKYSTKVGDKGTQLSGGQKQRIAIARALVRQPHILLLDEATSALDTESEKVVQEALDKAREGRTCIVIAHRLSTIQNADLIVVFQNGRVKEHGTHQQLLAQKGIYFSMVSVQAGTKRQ

With `COc1cc(C(=O)C(=O)N2CCCC[C@H]2C(=O)OC(CCCc2cccnc2)CCCc2cccnc2)cc(OC)c1OC` [BIRICODAR] the Activity was “inhibitor [+]”.
